One assay has as its target T1, KRAS G12C (Homo sapiens, UniProt P01116, G12C). Nature of the assay: KRAS GDP FI assay. In kind it is biochemical. Particulars: kinetic reading Ex580/Em620 for 120 min. From the text: Assay 2: KRAS GDP FI Assay
1. Prepare compound dilution plate.
2. Transfer Inhibitor/DMSO to assay plate by Echo.
3. Prepare 1× assay buffer.
4. Prepare KRAS G12C mix & SOS1 mix & GTP mix & detection reagent mix.
5. Add KRAS G12C mix, SOS1 mix, GTP mix.
6. Add detection reagent mix to assay plate.
Target sequence in this assay (P01116 1-188 isoform P01116-2 G12C): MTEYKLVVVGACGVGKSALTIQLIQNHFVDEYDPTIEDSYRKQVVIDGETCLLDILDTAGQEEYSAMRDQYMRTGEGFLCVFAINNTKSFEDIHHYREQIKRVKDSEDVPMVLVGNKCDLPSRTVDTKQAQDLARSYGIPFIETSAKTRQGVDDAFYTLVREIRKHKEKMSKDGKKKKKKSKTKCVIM
The molecule `C=CC(=O)N1CCN(c2nc(OC[C@@H]3CCCN3C)nc3c(=O)n(-c4c(F)cccc4OC)c(C(F)(F)F)nc23)C[C@@H]1CC#N` [Example 38, 2-((S)-1-acryloyl-4-(7-(2-fluoro-6-methoxyphenyl)-2-(((S)-1-methylpyrrolidin-2-yl)methoxy)-8-oxo-6-(trifluoromethyl)-7,8-dihydropyrimido[5,4-d]pyrimidin-4-yl)piperazin-2-yl)acetonitrile] had an IC50 of 494 nM.

The next assay deals with MIA PaCa-2. Nature of the assay: Tumor cell anti-proliferation assay (CTG assay), MIA PaCa-2. In kind it is cell-based. The note with it: Homo sapiens, MIA PaCa-2, 72 h, MIA PaCa-2, 3-days incubation, CTG; read-out: IC50 MIA PaCa-2. The protocol:
Assay 3: Tumor Cell Anti-Proliferation Assay (CTG Assay)
Tested tumor cell lines (MIA PaCa-2, NCI-H358, and A549) were seeded to the 96-well plate for overnight, then cells were treated with the test compound at 9 serially diluted concentrations in triplicate. After 3-days incubation with the test compound, the CTG assay was performed to evaluate the IC50. The 3 cell lines were tested in the same manner. Cisplatin were used as the positive control.
Day −1: Cell Plating for Cell Lines
1. Adjust the cell concentration to the appropriated number with the medium, and for each well of a 96-well plate, add 90 μl cell suspensions (Cell concentration will be adjusted according to the data base or density optimization assay). 2. Incubate the plates for overnight in humidified incubator at […] with 5% CO2.
Day 0: T0 Plate Reading and Compound Treatment
3. Add 10 μL culture medium to each well of plate A for T0 reading.
4. Equilibrate the plate and its content at RT for approximately 30 min.
5. Add 50 μL CellTiter-Glo® Reagent to each well for T0 reading.
6. Mix contents for 2 minutes on an orbital shaker to facilitate cell lysis.
7. Allow the plate to incubate at room temperature for 10 minutes to stabilize the luminescent signal. Note: Uneven luminescent signal within standard plates can be caused by temperature gradients, uneven seeding of cells or edge effects in multiwall plates.
8. Place a black BackSeal sticker to the bottom of each plate.
9. Record luminescence using an Envision Multi Label Reader.
10. Dilute the test compound and the positive control (Cisplatin). Add 10 μL of 10× test compound working solutions into the corresponding wells. Incubate the test plates in the humidified incubator at 37° C. with 5% Co2.
Day 3: Plate Reading for 3-Day Assay
11. Monitor under the microscope to make sure that the cells in control wells are healthy.
12. After three days incubation, add 50 μL CellTiter-Glo® Reagent to each well.
13. Mix contents for 2 minutes on an orbital shaker to facilitate cell lysis.
14. Allow the plate to incubate at room temperature for 10 minutes to stabilize the luminescent signal.
15. Note: Uneven luminescent signal within standard plates can be caused by temperature gradients, uneven seeding of cells or edge effects in multiwall plates.
16. Place a black BackSeal sticker to the bottom of each plate.
17. Record luminescence using an Envision Multi Label Reader.
In order to calculate IC50, a dose-response curve was fitted using nonlinear regression model with a sigmoidal dose response. The formula of the surviving rate is shown below, and the IC50 was automatically produced by GraphPad Prism 5.0.
The surviving rate […]=(LumTest compound−LumMedium control)/(LumNone treated-LumMedium control)×100%.
LumNone treated-LumMedium control is set as 100% o and LumMedium control is set as […]. T0 value will be presented as percentage of LumNone treated.
Take `C=CC(=O)N1CCN(c2nc(OC[C@@H]3CCCN3C)nc3c(=O)n(-c4cccc5cccc(Cl)c45)c(C(F)(F)F)nc23)C[C@@H]1CC#N` (single isomer, unassigned) [Example 32-a]: the IC50 stood at 3720 nM. Consider `C=CC(=O)N1CCN(c2nc(OC[C@@H]3CCCN3C)nc3c(=O)n(-c4cccc5cccc(Cl)c45)c(CC)nc23)[C@@H](C)C1` (single isomer, unassigned) [Compound 27-a], for which the IC50 amounted to 2890 nM. For `C=CC(=O)N1CCN(c2nc(OC[C@@H]3CCCN3C)nc3c(=O)n(-c4cccc5cccc(Cl)c45)c(C)nc23)[C@@H](C)C1` (single isomer, unassigned) [Compound 26-a], the IC50 was 4380 nM.

The assay is the same for the next values; noted with them: MIA PaCa-2, 3-days incubation, CTG; read-out: IC50 MIA PaCa-2.
As to “2-((S)-1-acryloyl-4-(7-(8-chloronaphthalen-1-yl)-2-(((2S,4R)-4-fluoro-1-methylpyrrolidin-2-yl) [Compound 25-a]”, the IC50 was more than 10 nM.

A further assay concerns the target T1, KRAS G12C. Put plainly: KRAS G12C nucleotide exchange assay (SOS1-mediated, mant-GDP fluorescence). The format is biochemical. Further details: KRas(1-169) G12C protein. Particulars: 15 min pre-incubation. The protocol: Assay 1: KRAS G12C Nucleotide Exchange Assay
1×Loading buffer: 20 mM HEPES, pH 7.5, 50 mM NaCl, 0.5 mM MgCl2, 1 mM DTT, 5 mM EDTA
1×Equilibration buffer: 20 mM HEPES, pH 7.5, 150 mM NaCl, 1 mM MgCl2, 1 mM DTT
1×Assay buffer: 20 mM HEPES, pH 7.5, 150 mM NaCl, 1 mM MgCl2, 0.01% Tween-20, 1 mM DTT
2. Load Mant GDP to KRAS G12C:
a. A mixed solution of 100 µL mant GDP and KRAS G12C was prepared with 1×loading buffer: 60 um KRAS G12C, 600 um […], incubated at room temperature for 60 minutes, and the reaction was carried out in dark conditions.
b. Add 1 uL 1 m MgCl2 (final concentration 10 mm) to stop the reaction, mix the solution upside down in the centrifuge tube, centrifugate for 3-5 seconds, and incubate at room temperature for 30 minutes.
c. At the same time of incubation for 30 minutes, balance nap-5 column with 10 ml ix equipment buffer until no liquid drops.
d. Drop the mixed solution of 100 uL mant GDP and KRAS G12C into the center of nap-5 column. After the sample completely enters nap-5 column, add 400 µL 1× equipment buffer until no liquid drops.
e. Add 500 ul 1× equipment buffer for elution and collect eluant.
f. Determination of KRAS G12C mant GDP with Bradford protein quantitative Kit.
3. Nucleotide Exchange Experiment:
a. Transfer 50 NL DMSO/compound to 384 well plate with echo550.
b. 10 uL enzyme mix was added into 384 pore plate and incubated with DMSO/compound for 15 min.
c. Initial reaction with 10 µL Sos1/GTP mix.
d. Immediately after reaction, read ex360/em440 fluorescence value in kinetic mode with Nivo.
a. Use Graphpad software to process data and draw pictures.
b. K value is obtained in Graphpad software by fitting One phase experimental deck model.
c. Z′=1-3*(SdKmax+SdKmin)/(AveKmax−AveKmin)
d. In % is calculated by the following formula:
Inh%=(Kmax−Ksample)/(Kmax−Kmin)*100
Target sequence in this assay (P01116 1-169 isoform P01116-2 G12C): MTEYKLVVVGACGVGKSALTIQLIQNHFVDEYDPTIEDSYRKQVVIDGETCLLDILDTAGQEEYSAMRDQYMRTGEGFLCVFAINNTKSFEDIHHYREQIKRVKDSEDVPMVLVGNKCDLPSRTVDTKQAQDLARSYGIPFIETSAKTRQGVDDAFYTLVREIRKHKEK
`C=CC(=O)N1CCN(c2nc(OC[C@@H]3CCCN3C)nc3c(=O)n(-c4cccc5cccc(C(=C)C)c45)c(C)nc23)C[C@@H]1CC#N` [Compound 11, 2-((S)-1-acryloyl-4-(6-methyl-2-(((S)-1-methylpyrrolidin-2-yl)methoxy)-8-oxo-7-(8-(prop-1-en-2-yl)naphthalen-1-yl)-7,8-dihydropyrimido[5,4-d]pyrimidin-4-yl)piperazin-2-yl)acetonitrile] gave an IC50 of 2940 nM. Molecule `C=CC(=O)N1CCN(c2nc(OC[C@@H]3CCCN3C)nc3c(=O)n(-c4cc(OC)cc5ccccc45)c(C)nc23)C[C@@H]1CC#N` [Compound 12, 2-((S)-1-acryloyl-4-(7-(3-methoxynaphthalen-1-yl)-6-methyl-2-(((S)-1-methylpyrrolidin-2-yl)methoxy)-8-oxo-7,8-dihydropyrimido[5,4-d]pyrimidin-4-yl)piperazin-2-yl)acetonitrile] gave an IC50 of 900 nM. The same measure, in the same setting: in the case of `C=CC(=O)N1CCN(c2nc(OC[C@@H]3CCCN3C)nc3c(=O)n(-c4cccc5ccccc45)c(C)nc23)CC1` [Example 1, (S)-8-(4-acryloylpiperazin-1-yl)-2-methyl-6-((1-methylpyrrolidin-2-yl)methoxy)-3-(naphthalen-1-yl)pyrimido[5,4-d]pyrimidin-4(3H)-one] it was 35400 nM; in that of `C=CC(=O)N1CCN(c2nc(OC[C@@H]3CCCN3C)nc3c(=O)n(-c4cccc5cccc(CC)c45)c(C)nc23)C[C@@H]1CC#N` [Compound 9, 2-((S)-1-acryloyl-4-(7-(8-ethylnaphthalen-1-yl)-6-methyl-2-(((S)-1-methylpyrrolidin-2-yl)methoxy)-8-oxo-7,8-dihydropyrimido[5,4-d]pyrimidin-4-yl)piperazin-2-yl)acetonitrile], 1070 nM. The molecule `C=CC(=O)N1CCN(c2nc(OC[C@@H]3CCCN3C)nc3c2CCCC(c2c(C)ccc4[nH]ncc24)C3)CC1` (stereo partly drawn) [Compound 20, 1-(4-(8-(5-methyl-1H-indazol-4-yl)-2-(((S)-1-methylpyrrolidin-2-yl)methoxy)-6,7,8,9-tetrahydro-5H-cyclohepta[d]pyrimidin-4-yl)piperazin-1-yl)prop-2-en-1-one] yielded an IC50 of 2880 nM.

The molecule `C=CC(=O)N1CCN(c2nc(OC[C@@H]3CCCN3C)nc3c(=O)n(-c4c(C)c(C)cc5[nH]ncc45)c(C)nc23)C[C@@H]1CC#N` [Compound 16, 2-((S)-1-acryloyl-4-(7-(5,6-dimethyl-1H-indazol-4-yl)-6-methyl-2-(((S)-1-methylpyrrolidin-2-yl)methoxy)-8-oxo-7,8-dihydropyrimido[5,4-d]pyrimidin-4-yl)piperazin-2-yl)acetonitrile] gave an IC50 of 820 nM. On the same count and under the same terms, the value for `C=CC(=O)N1CCN(c2nc(OC[C@@H]3CCCN3C)nc3c(=O)n(-c4cccc5ncccc45)c(C)nc23)C[C@@H]1CC#N` [Compound 15, 2-((S)-1-acryloyl-4-(6-methyl-2-(((S)-1-methylpyrrolidin-2-yl)methoxy)-8-oxo-7-(quinolin-5-yl)-7,8-dihydropyrimido[5,4-d]pyrimidin-4-yl)piperazin-2-yl)acetonitrile] was 2930 nM; that for `C=CC(=O)N(C)C1CCN(c2nc(OC[C@@H]3CCCN3C)nc3c2CCN(c2cccc4cccc(Cl)c24)C3)C1` (stereo partly drawn) [Compound 21, N-(1-(7-(8-chloronaphthalen-1-yl)-2-(((S)-1-methylpyrrolidin-2-yl)methoxy)-5,6,7,8-tetrahydropyrido[3,4-d]pyrimidin-4-yl)pyrrolidin-3-yl)-N-methylacrylamide] was 19000 nM. On the same count and under the same terms, in the case of `C=CC(=O)N1CCN(c2nc(OC[C@@H]3CCCN3C)nc3c(=O)n(-c4cccc5ccccc45)c(-c4ccccc4)nc23)C[C@@H]1CC#N` [Compound 17, 2-((S)-1-acryloyl-4-(2-(((S)-1-methylpyrrolidin-2-yl)methoxy)-7-(naphthalen-1-yl)-8-oxo-6-phenyl-7,8-dihydropyrimido[5,4-d]pyrimidin-4-yl)piperazin-2-yl)acetonitrile] it was 480 nM. On the same count and under the same terms, the value for `C=CC(=O)N1CCN(c2nc(OC[C@@H]3CCCN3C)nc3c(=O)n(-c4cccc5cccc(C6CC6)c45)c(C)nc23)C[C@@H]1CC#N` [Compound 10, 2-((S)-1-acryloyl-4-(7-(8-cyclopropylnaphthalen-1-yl)-6-methyl-2-(((S)-1-methylpyrrolidin-2-yl)methoxy)-8-oxo-7,8-dihydropyrimido [5,4-d]pyrimidin-4-yl)piperazin-2-yl)acetonitrile] was 840 nM; that for `C=CC(=O)N1CCN(c2nc(OC[C@@H]3CCCN3C)nc3c(=O)n(-c4c(C)ccc5[nH]ncc45)c(C)nc23)C[C@@H]1CC#N` [Compound 23, 2-((S)-1-acryloyl-4-(6-methyl-7-(5-methyl-1H-indazol-4-yl)-2-(((S)-1-methylpyrrolidin-2-yl)methoxy)-8-oxo-7,8-dihydropyrimido[5,4-d]pyrimidin-4-yl)piperazin-2-yl)acetonitrile] was 710 nM.

As usually defined, the IC50 is the concentration needed to halve the response being measured.
